From patent US6093744A, “N-acyl sulfamic acid esters useful as hypocholesterolemic agents” (Warner-Lambert Company, priority 1998, dated 2000)
Counter-ions that a name gives are not always drawn.

How the values were obtained:
Plasma TC = experiment: in vivo screen designated APCC (high fat, high cholesterol diet, plasma cholesterol); set-up: species or system male Sprague-Dawley rats; conditions: rats, PCC diet with 0.5% cholic acid overnight, vehicle CMC/Tween
Excerpt: In one in vivo screen designated APCC, male Sprague-Dawley rats (200 to 225 g) were randomly divided into treatment groups and dosed at 4 PM with either vehicle (CMC/Tween) or suspensions of compounds in vehicle. The normal chow diet was then replaced with a high fat, high cholesterol diet (designated PCC) containing 0.5% cholic acid. The rats consumed this diet ad libitum during the night and were sacrificed at 8 AM to obtain blood samples for cholesterol analysis using standard procedures. Statistical differences between mean cholesterol values for the same vehicle were determined using analysis of variance followed by Fisher's least significant test.

[1] = molecular target: T1, acyl-CoA: cholesterol acyltransferase (ACAT) (Rattus norvegicus, UniProt Q7TQM4); experiment: In vitro inhibition of acylation of cholesterol by oleic acid (LAI), rat liver microsomes; type: biochemical; conditions: radiolabeled oleic acid
T1 construct: tissue preparation containing rat liver microsomes; from tissue; host or cells: rat liver microsomes
T1 sequence (Q7TQM4 1-524): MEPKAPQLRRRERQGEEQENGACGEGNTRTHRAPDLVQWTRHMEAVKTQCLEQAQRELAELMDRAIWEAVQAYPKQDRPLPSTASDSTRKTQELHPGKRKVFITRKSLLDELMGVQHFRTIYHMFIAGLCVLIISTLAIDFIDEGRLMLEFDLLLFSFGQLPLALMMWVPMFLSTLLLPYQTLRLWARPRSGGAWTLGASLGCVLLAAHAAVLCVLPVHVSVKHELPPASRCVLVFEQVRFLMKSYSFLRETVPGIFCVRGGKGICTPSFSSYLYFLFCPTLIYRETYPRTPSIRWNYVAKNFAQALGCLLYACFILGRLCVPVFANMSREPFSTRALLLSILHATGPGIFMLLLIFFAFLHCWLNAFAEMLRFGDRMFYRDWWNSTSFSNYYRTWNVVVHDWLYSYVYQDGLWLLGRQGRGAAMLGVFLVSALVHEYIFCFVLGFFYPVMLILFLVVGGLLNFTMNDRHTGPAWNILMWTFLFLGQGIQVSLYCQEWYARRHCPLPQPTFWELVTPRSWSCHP
Description: The ability of representative compounds of the present invention to inhibit ACAT was measured using an in vitro test more fully described in Field F J, Salone R G, Biochemica et Biophysica 1982; 712:557-570. The test assesses the ability of a test compound to inhibit the acylation of cholesterol by oleic acid by measuring the amount of radiolabeled cholesterol oleate formed from radiolabeled oleic acid in a tissue preparation containing rat liver microsomes.

[2] = Rattus norvegicus, dose 10 mg/kg

Structure (SMILES) | IC50 [1] [µM] | change in vivo at 10 mg/kg (Plasma TC; [2]) [%] | other results
CC(C)c1cc(C(C)C)c(CC(=O)NS(=O)(=O)Oc2c(C(C)C)cc(NC(=O)[C@H](CCCCNC(=O)OC(C)(C)C)NC(=O)OC(C)(C)C)cc2C(C)C)c(C(C)C)c1 [Example 1, (S)-[5-tert-Butoxycarbonylamino-5-(3,5-diisopropyl-4-{[(2,4,6-triisopropyl-phenyl)-acetyl]-sulfamoyloxy}-phenylcarbanoyl)-pentyl]-carbamic acid tert-butyl ester] | 23 | – | change in vivo at 1 mg/kg (Plasma TC; Rattus norvegicus, dose 1 mg/kg): 7%
CC(C)c1cc(C(C)C)c(CC(=O)NS(=O)(=O)Oc2c(C(C)C)cc(NC(=O)[C@@H](N)CCCCN)cc2C(C)C)c(C(C)C)c1 [Example 2, (S)-[(2,4,6-Triisopropyl-phenyl)-acetyl]-sulfamic acid 4-(2,6-diamino-hexanoylamino)-2,6-diisopropyl-phenyl ester dihydrochloride] | > 50 | -60 | –
CC(C)c1cc(C(C)C)c(CC(=O)NS(=O)(=O)Oc2c(C(C)C)cc(NC(=O)CNC(=O)OC(C)(C)C)cc2C(C)C)c(C(C)C)c1 [Example 3] | 18 | – | change in vivo at 30 mg/kg (Plasma TC; Rattus norvegicus): -40%
CC(C)c1cc(C(C)C)c(CC(=O)NS(=O)(=O)Oc2c(C(C)C)cc(NC(=O)CN)cc2C(C)C)c(C(C)C)c1 [Example 4, [(2,4,6-Triisopropyl-phenyl)-acetyl]-sulfamic acid 4-(2-amino-acetylamino)-2,6-diisopropyl-phenyl ester] | 48 | -65 | –
CSCCC(N)C(=O)Nc1cc(C(C)C)c(OS(=O)(=O)NC(=O)Cc2c(C(C)C)cc(C(C)C)cc2C(C)C)c(C(C)C)c1 (centres unmarked) [Example 6, [(2,4,6-Triisopropyl-phenyl)-acetyl]-sulfamic acid 4-(2-amino-4-methylsulfanyl-butyrylamino)-2,6-diisopropyl-phenyl ester trifluoroacetate] | 750 | -72 | –
CCOC(=O)CCNC(=O)Nc1cc(C(C)C)c(OS(=O)(=O)NC(=O)Cc2c(C(C)C)cc(C(C)C)cc2C(C)C)c(C(C)C)c1 [Example 7] | 49 | – | change in vivo at 30 mg/kg (Plasma TC; Rattus norvegicus): -30%
CC(C)c1cc(C(C)C)c(CC(=O)NS(=O)(=O)Oc2c(C(C)C)cc(NC(=O)NCCC(=O)O)cc2C(C)C)c(C(C)C)c1 [Example 8] | > 50 | -15 | –
CC(C)c1cc(C(C)C)c(CC(=O)NS(=O)(=O)Oc2c(C(C)C)cc(NC(=O)C(N)Cc3c[nH]c4ccccc34)cc2C(C)C)c(C(C)C)c1 (centres unmarked) [Example 9] | 24 | -25 | –
CC(C)c1cc(C(C)C)c(CC(=O)NS(=O)(=O)Oc2c(C(C)C)cc(NC(=O)CCCCN)cc2C(C)C)c(C(C)C)c1 [Example 10, [(2,4,6-Triisopropyl-phenyl)-acetyl]-sulfamic acid 4-(5-amino-pentanoylamino)-2,6-diisopropyl-phenyl ester trifluoroacetate(1:1) (salt)] | – | -15 | –
CC(C)c1cc(C(C)C)c(CC(=O)NS(=O)(=O)Oc2c(C(C)C)cc(OCCCN(C)C)cc2C(C)C)c(C(C)C)c1.Cl [Example 15, [(2,4,6-Triisopropyl-phenyl)-acetyl]-sulfamic acid 4-(3-dimethylamino-propoxy)-2,6-diisopropyl-phenyl ester hydrochloride salt] | – | – | APCC % Change in Plasma TC (Plasma TC; dose 10 mg/kg): -26%
CC(C)c1cc(C(C)C)c(CC(=O)NS(=O)(=O)Oc2c(C(C)C)cc(NCCO)cc2C(C)C)c(C(C)C)c1 [Example 27, [(2,4,6-Triisopropyl-phenyl)-acetyl]-sulfamic acid 4-(2-hydroxy-ethylamino)-2,6-diisopropyl-phenyl ester] | 43 | – | –
CC(C)c1cc(C(C)C)c(CC(=O)NS(=O)(=O)Oc2c(C(C)C)cc(S(N)(=O)=O)cc2C(C)C)c(C(C)C)c1 [Example 35, [(2,4,6-Triisopropyl-phenyl)-acetyl]-sulfamic acid 2,6-diisopropyl-4-sulfamoyl-phenyl ester] | 50 | – | –
